Experimental data as given in ChEMBL document CHEMBL5252629, “The protein disulfide isomerase inhibitor 3-methyltoxoflavin inhibits Chikungunya virus” (Bioorg Med Chem, 2023).
Converted amounts (≈) assume the structure as drawn.

Experiments:
Chikungunya virus [1] = test: Antiviral activity against CHIKV infected in hamster BHK-21 cells assessed as inhibition of viral replication at 20 uM measured after 48 hrs by renilla luciferase assay relative to control; format: functional; parameters: scale not given: the % may be the effect or the level left
Chikungunya virus [2] = test: Antiviral activity against CHIKV infected in human foreskin fibroblast cells; format: functional, organism-based
Chikungunya virus [3] = test: Antiviral activity against CHIKV-ZsGreen infected in African green monkey Vero incubated for 24 hrs by flow cytometry analysis; format: functional, organism-based
[4] = Kinetic solubility of the compound in FaSSGF at pH 1.2 by LCMS analysis; format: ADME; settings: read-out: Kinetic_solubility
[5] = Kinetic solubility of the compound in FaSSIF at pH 6.8 by LCMS analysis; format: ADME; settings: read-out: Kinetic_solubility
[6] = Kinetic solubility of the compound in buffer at pH 7.4 by LCMS analysis; format: physicochemical; settings: read-out: Kinetic_solubility
[7] = Metabolic stability in mouse liver microsomes assessed as intrinsic clearance at 100 uM preincubated for 5 mins followed by NADPH addition and measured upto 60 mins by LCMS analysis; format: ADME, Microsome; settings: time < 65 min, read-out: CLH
[8] = Metabolic stability in human liver microsomes assessed as hepatic clearance preincubated for 5 mins followed by NADPH addition and measured after 20 mins by LCMS analysis; format: ADME, Microsome; settings: time 25 min
[9] = Apparent permeability of the compound across apical side to basolateral side in human Caco-2 cells; format: ADME, cell-based
[10] = Apparent permeability of the compound across apical side to basolateral side in human Caco-2 cells assessed as drug recovery; format: ADME, cell-based
[11] = Apparent permeability of the compound across basolateral side to apical side in human Caco-2 cells assessed as drug recovery; format: ADME, cell-based
Chikungunya virus [12] = test: Antiviral activity against CHIKV S27 infected in Huh-7 cells assessed as reduction in cytopathic effect; format: functional, organism-based; settings: S27, Huh-7
Huh-7 [13] = test: Cytotoxicity against human Huh-7 cells assessed as reduction in cell viability measured after 48 hrs by MTT assay; format: functional
[14] = Selectivity index, ratio of CC50 for human Huh-7 cells to EC50 for CHIKV S27 infected in Huh-7 cells; format: toxicity, cell-based; settings: read-out: Ratio CC50/EC50
Chikungunya virus [15] = test: Antiviral activity against CHIKV S27 infected in Huh-7 cells assessed as reduction in cytopathic effect by neutral red staining based analysis; format: functional, organism-based; settings: S27, Huh-7
Huh-7 [16] = test: Cytotoxicity against human Huh-7 cells assessed as reduction in cell viability incubated for 48 hrs by MTT assay; format: functional
[17] = Selectivity index, ratio of CC50 for human Huh-7 cells to EC50 for CHIKV S27 infected in Huh-7 cells assessed as reduction in cytopathic effect by neutral red staining based analysis; format: toxicity, cell-based; settings: read-out: Ratio CC50/EC50
Chikungunya virus [18] = test: Antiviral activity against CHIKV S27 infected in Vero 76 cells assessed as reduction in cytopathic effect; format: functional; settings: S27, Vero 76
Vero 76 = test: Cytotoxicity against African green monkey Vero 76 cells assessed as reduction in cell viability incubated for 48 hrs by MTT assay; format: toxicity, cell-based; settings: chlorocebus sabaeus, vero 76, 48 h
Chikungunya virus [19] = test: Antiviral activity against CHIKV S27 infected in Vero 76 cells assessed as reduction in cytopathic effect by neutral red staining based analysis; format: functional, organism-based; settings: S27, Vero 76
Yellow fever virus [20] = test: Antiviral activity against Yellow fever virus 17D infected in Huh-7 cells assessed as reduction in cytopathic effect; format: functional, organism-based
Huh-7 [21] = test: Cytotoxicity against human Huh-7 cells infected with yellow fever virus assessed as reduction in cell viability incubated for 48 hrs by MTT assay; format: functional
[22] = Selectivity index, ratio of CC50 for human Huh-7 cells to EC50 for Yellow fever virus 17D; format: toxicity; settings: read-out: Ratio CC50/EC50
Yellow fever virus [23] = test: Antiviral activity against Yellow fever virus 17D infected in Huh-7 cells assessed as reduction in cytopathic effect by neutral red staining based analysis; format: functional, organism-based
[24] = Selectivity index, ratio of CC50 for human Huh-7 cells to EC50 for Yellow fever virus 17D assessed as reduction in cytopathic effect by neutral red staining based analysis; format: toxicity; settings: read-out: Ratio CC50/EC50
Chikungunya virus [25] = test: Antiviral activity against CHIKV infected in hamster BHK-21 cells assessed as inhibition of viral replication measured after 48 hrs by gaussia luciferase assay; format: functional, organism-based; settings: BHK-21, 48 h
BHK-21 = test: (§1) Cytotoxicity against hamster BHK-21 cells assessed as reduction in cell viability measured after 48 hrs by MTT assay; format: toxicity, cell-based, Mesocricetus auratus; settings: bhk-21, 48 h
[26] = Selectivity index, ratio of CC50 for hamster BHK-21 cells to EC50 for CHIKV infected in hamster BHK-21 cells; format: toxicity, cell-based; settings: read-out: Ratio CC50/EC50
HepG2 = test: Cytotoxicity against human HepG2 cells assessed as reduction in cell viability measured after 48 hrs by MTT assay; format: functional
[27] = Inhibition of N-terminal His-tagged human PDI expressed in Escherichia coli BL21 (DE3) incubated for 1 hr
Chikungunya virus [28] = test: Antiviral activity against CHIKV infected in hamster BHK-21 cells; format: functional, organism-based
Chikungunya virus [29] = test: Antiviral activity against CHIKV infected in […] Huh-7 cells; format: functional, organism-based
[30] = as §1; format: toxicity, cell-based, Mesocricetus auratus; settings: BHK-21 cells
Chikungunya virus [31] = test: Antiviral activity against CHIKV infected in African green monkey Vero cells; format: functional, organism-based

SMILES: Cc1cc(C)nc(NS(=O)(=O)c2ccc(NC(=O)CN3C(=O)C4CC=CCC4C3=O)cc2)n1 (stereo not drawn)
- Activity (Chikungunya virus [1]): 100%

SMILES: COc1ccc(C(=O)/C=C/c2ccc(O)cc2)c(O)c1CC=C(C)C
- Activity (Chikungunya virus [1]): 13.5%

SMILES: O=C(C1CC1)N1CCN(Cn2sc3ccccc3c2=O)CC1
- Activity (Chikungunya virus [1]): 14%

SMILES: CC(C)n1ncc2c1N=C(O)CC2c1ccc(-c2ccc(C(=O)O)cc2)o1 (stereo not drawn)
- Activity (Chikungunya virus [1]): 100%

SMILES: O=C(O)c1ccc(S(=O)(=O)Nc2ccc(S(=O)(=O)Nc3ccccn3)cc2)cc1
- Activity (Chikungunya virus [1]): 100%

SMILES: O=C1CC(c2ccc(S(=O)(=O)Nc3ccccc3C(=O)Nc3ccc(F)cc3)cc2)CN1 (stereo not drawn)
- Activity (Chikungunya virus [1]): 100%

SMILES: O=C(O)c1nc(=O)[nH]c2ccccc12
- IC50 (Chikungunya virus [2]): 23 µM

SMILES: Cc1nc(C)c(CN2CCCC(C(=O)Nc3cccc(-n4cnnn4)c3)C2)nc1C (stereo not drawn)
- Activity (Chikungunya virus [1]): 100%

SMILES: NC(=O)C1CCN(c2nc3c(c(=O)[nH]2)C(C(=O)Nc2ccccc2Cl)CC(=O)N3)CC1 (stereo not drawn)
- Activity (Chikungunya virus [1]): 140%

SMILES: Cc1cc([N+](=O)[O-])ccc1-c1ccc(C2N=C(O)c3c(sc4c3CCN(C)C4)N2)o1 (stereo not drawn)
- Activity (Chikungunya virus [1]): 100%

SMILES: OC(CNC1CCN(Cc2ccccc2)CC1)COc1ccccc1 (stereo not drawn)
- EC50 (Chikungunya virus [3]): 1.6 µM

SMILES: Cn1c(=O)[nH]c2ccc(S(=O)(=O)NCCCOC34CC5CC(CC(C5)C3)C4)cc2c1=O
- Activity (Chikungunya virus [1]): 100%

SMILES: Cc1nc2c(=O)n(C)c(=O)nc-2n(C)n1
- Activity (Chikungunya virus [1]): 2%
- solubility kinetic [4]: 424 µM (≈ 87.7 µg/mL)
- solubility kinetic [5]: 228 µM (≈ 47.1 µg/mL)
- solubility kinetic [6]: 400 µM (≈ 82.8 µg/mL)
- microsomal CLint at 100 µM [7]: 7.4 µL/min/mg
- CLhep predicted [8]: < 6.1 mL/min/kg
- Papp [9]: 17.8 10^-6 cm/s
- Drug recovery [10]: 103%
- Drug recovery [11]: 93.5%
- EC50 (Chikungunya virus [12]): 0.19 µM
- CC50 (Huh-7 [13]): 3.2 µM
- selectivity ratio [14]: 17
- EC50 (Chikungunya virus [15]): < 0.1 µM
- CC50 (Huh-7 [16]): 1.1 µM
- selectivity ratio [17]: > 11
- EC90 (Chikungunya virus [18]): > 1.7 µM
- CC50 (Vero 76): 1.7 µM
- EC50 (Chikungunya virus [19]): > 1.7 µM
- EC50 (Yellow fever virus [20]): 0.37 µM
- CC50 (Huh-7 [21]): 1.2 µM
- selectivity ratio [22]: 3.2
- EC50 (Yellow fever virus [23]): 0.42 µM
- selectivity ratio [24]: 2.9
- EC50 (Chikungunya virus [25]): 0.2 µM
- CC50 (BHK-21): 6.2 µM
- selectivity ratio [26]: 30.8
- CC50 (HepG2): 11 µM
- IC50 [27]: 0.17 µM

SMILES: CC(=O)c1ccc(S(=O)(=O)NC(=O)NC2CCCCC2)cc1 [ACETOHEXAMIDE]
- Activity (Chikungunya virus [1]): 100%

SMILES: CCN(CC)Cc1cc(Nc2ccnc3cc(Cl)ccc23)ccc1O [AMODIAQUINE]
- Activity (Chikungunya virus [1]): 19%

SMILES: CN1[C@@H]2CC[C@H]1C[C@@H](OC(=O)C(CO)c1ccccc1)C2 (stereo partly drawn) [ATROPINE]
- Activity (Chikungunya virus [1]): 149.2%

SMILES: COc1c(O)cc2c(c1O)[C@@H]1O[C@H](CO)[C@@H](O)[C@H](O)[C@H]1OC2=O [BERGENIN]
- Activity (Chikungunya virus [1]): 100%

SMILES: C[C@@H]1C[C@H]2[C@@H]3CCC4=CC(=O)C=C[C@]4(C)[C@@]3(F)[C@@H](O)C[C@]2(C)[C@@]1(O)C(=O)CO [DEXAMETHASONE]
- Activity (Chikungunya virus [1]): 70.9%

SMILES: C=CCc1ccc(OC)cc1 [ESTRAGOLE]
- Activity (Chikungunya virus [1]): 100%

SMILES: C=CCc1ccc(O)c(OC)c1 [EUGENOL]
- Activity (Chikungunya virus [1]): 100%

SMILES: OCCN1CCN(CCCN2c3ccccc3Sc3ccc(C(F)(F)F)cc32)CC1 [FLUPHENAZINE]
- Activity (Chikungunya virus [1]): 11.6%

SMILES: O=C1OC(CN2CCOCC2)CN1/N=C/c1ccc([N+](=O)[O-])o1 (stereo not drawn) [FURALTADONE]
- Activity (Chikungunya virus [1]): 20.4%

SMILES: O=C(CCCN1CCC(O)(c2ccc(Cl)cc2)CC1)c1ccc(F)cc1 [HALOPERIDOL]
- Activity (Chikungunya virus [1]): 40.5%

SMILES: CCC(C)n1ncn(-c2ccc(N3CCN(c4ccc(OCC5COC(Cn6cncn6)(c6ccc(Cl)cc6Cl)O5)cc4)CC3)cc2)c1=O (stereo not drawn) [ITRACONAZOLE]
- EC50 (Chikungunya virus [28]): 0.32 µM

SMILES: CCCCCc1c2c(cc(O)c1C(=O)O)OC(=O)c1c(cc(OC)cc1C(=O)CCCC)O2 [LOBARIC ACID]
- EC50 (Chikungunya virus [29]): 5.3 µM

SMILES: CCCCN(CCCC)CC(O)c1cc(Cl)cc2c1-c1ccc(Cl)cc1/C2=C/c1ccc(Cl)cc1 (stereo not drawn) [LUMEFANTRINE]
- Activity (Chikungunya virus [1]): 100%

SMILES: C=CCN1CC[C@]23c4c5ccc(O)c4O[C@H]2C(=O)CC[C@@]3(O)[C@H]1C5 [NALOXONE]
- Activity (Chikungunya virus [1]): 121.5%

SMILES: CCCCCCCCCCC[C@@H](C[C@@H]1OC(=O)[C@H]1CCCCCC)OC(=O)[C@H](CC(C)C)NC=O [ORLISTAT]
- Activity (Chikungunya virus [1]): 48.7%

SMILES: c1ccc2c(c1)Nc1ccccc1S2 [PHENOTHIAZINE]
- Activity (Chikungunya virus [1]): 73.7%

SMILES: NC(=O)C1(N2CCCCC2)CCN(CCCC(=O)c2ccc(F)cc2)CC1 [PIPAMPERONE]
- Activity (Chikungunya virus [1]): 102.9%

SMILES: Clc1ccc2c(N3CCN(CCCN4CCN(c5ccnc6cc(Cl)ccc56)CC4)CC3)ccnc2c1 [PIPERAQUINE]
- Activity (Chikungunya virus [1]): 138.1%

SMILES: CN(C)CCCN1c2ccccc2Sc2ccccc21 [PROMAZINE]
- Activity (Chikungunya virus [1]): 18%

SMILES: CCN(CC)CCCC(C)Nc1c2ccc(Cl)cc2nc2ccc(OC)cc12 (stereo not drawn) [QUINACRINE]
- Activity (Chikungunya virus [1]): 12.5%
- EC50 (Chikungunya virus [25]): 12 µM
- CC50 at 48 h [30]: 19.8 µM
- selectivity ratio [26]: 1.6

SMILES: Cc1nnc(C(=O)NC(C)(C)c2nc(C(=O)NCc3ccc(F)cc3)c(O)c(=O)n2C)o1 [RALTEGRAVIR]
- Activity (Chikungunya virus [1]): 58.9%

SMILES: O=P(O)(O)C(O)(Cc1cccnc1)P(=O)(O)O [RISEDRONIC ACID]
- Activity (Chikungunya virus [1]): 86.7%

SMILES: OCc1ccccc1O[C@@H]1O[C@H](CO)[C@@H](O)[C@H](O)[C@H]1O [SALICIN]
- Activity (Chikungunya virus [1]): 100%

SMILES: CCN(CC)CCOc1ccc2c(c1)C(=O)c1cc(OCCN(CC)CC)ccc1-2 [TILORONE]
- Activity (Chikungunya virus [1]): 100%
- EC50 (Chikungunya virus [31]): 4.2 µM

SMILES: CC(C)=CCC/C(C)=C/Cc1c(O)ccc(C(=O)/C=C/c2ccc(O)cc2)c1O [XANTHOANGELOL]
- Activity (Chikungunya virus [1]): 8.4%
- EC50 (Chikungunya virus [25]): 7.1 µM
- CC50 at 48 h [30]: 11.8 µM
- selectivity ratio [26]: 1.7

SMILES: O=C1Cc2cc(CCN3CCN(c4nsc5ccccc45)CC3)c(Cl)cc2N1 [ZIPRASIDONE]
- Activity (Chikungunya virus [1]): 101%
